The record followed here is ChEMBL document CHEMBL5154672, “Design and synthesis of HDAC inhibitors to enhance the therapeutic effect of diffuse large B-cell lymphoma by improving metabolic stability and pharmacokinetic characteristics” (Eur J Med Chem, 2022).

The source made the active and inactive calls. The calls are words filed in the database; no cut-off is given here.

Experiment [1] deals with T1, Histone deacetylase 3 (Homo sapiens, UniProt O15379). In words: Inhibition of HDAC3 in human TMD8 cells assessed as histone H4 acetylation after 24 hrs by Western blot analysis. Type of experiment: cell-based. Particulars: dose 2.5-10 µM, DDE = dose-dependent effect. (In general: In western blotting, separated proteins are transferred to a membrane and probed.)
The target in experiment [2] is Histone deacetylase 9 (Homo sapiens) (UniProt Q9UKV0). As to the kind of experiment: Inhibition of HDAC9 (unknown origin) assessed as remaining enzyme activity at 1 uM using Boc-(Trifluoroacetyl) Lysine-AMC fluorogenic peptide as substrate preincubated for 10 mins followed by substrate addition for 30 mins in presence of ATP by fluoroscence based assay relative to control. Particulars: time 40.0 min.

In experiment [3] the test system is TMD8. As to the kind of experiment: Induction of apoptosis in human TMD8 cells assessed as increase in cleaved PARP levels at 2.5 to 10 uM after 24 hrs by Western blot analysis. Type of experiment: functional, cell-based. Particulars: dose 2.5-10 µM.
Experiment [4] addresses T2, Histone deacetylase 2 (Homo sapiens, UniProt Q92769). As to the kind of experiment: Inhibition of HDAC2 in human TMD8 cells assessed as histone H3 acetylation after 24 hrs by Western blot analysis. Format: cell-based. The following applies: dose 2.5-10 µM, DDE = dose-dependent effect.
Experiment [5] concerns the target Histone deacetylase 4 (Homo sapiens) (UniProt P56524). As to the kind of experiment: Inhibition of HDAC4 (unknown origin) assessed as remaining enzyme activity at 1 uM using Boc-(Trifluoroacetyl) Lysine-AMC fluorogenic peptide as substrate preincubated for 10 mins followed by substrate addition for 30 mins in presence of ATP by fluoroscence based assay relative to control. Particulars: time 40.0 min.

Experiment [6] concerns TMD8. As to the kind of experiment: Induction of cell cycle arrest in human TMD8 cells assessed as accumulation of cells at G2/M phase incubated for 24 hrs by propidium iodide based flow cytometric analysis. Type of experiment: functional. Particulars: dose 0.25-1 µM, DDE = dose-dependent effect. (A flow cytometer gives signals particle by particle.)
The target in experiment [7] is Histone deacetylase 7 (Homo sapiens) (UniProt Q8WUI4). In words: Inhibition of HDAC7 (unknown origin) assessed as remaining enzyme activity at 1 uM using Boc-(Trifluoroacetyl) Lysine-AMC fluorogenic peptide as substrate preincubated for 10 mins followed by substrate addition for 30 mins in presence of ATP by fluoroscence based assay relative to control. The following applies: time 40.0 min.

The target in experiment [8] is T2, Histone deacetylase 2. In words: Inhibition of HDAC2 in human TMD8 cells assessed as histone H4 acetylation after 24 hrs by Western blot analysis. Format: cell-based. The following applies: dose 2.5-10 µM, DDE = dose-dependent effect.
Experiment [9] relates to TMD8. As to the kind of experiment: Induction of apoptosis in human TMD8 cells assessed as cleavage of inactive caspase-3 at 2.5 to 10 uM after 24 hrs by Western blot analysis. Type of experiment: functional, cell-based. Particulars: dose 2.5-10 µM.
The target of experiment [10] is T3, Histone deacetylase 1 (Homo sapiens, UniProt Q13547). In words: Inhibition of HDAC1 in human TMD8 cells assessed as histone H4 acetylation after 24 hrs by Western blot analysis. The following applies: dose 2.5-10 µM, DDE = dose-dependent effect. Format: cell-based.
The target of experiment [11] is Histone deacetylase 11 (Homo sapiens) (UniProt Q96DB2). As to the kind of experiment: Inhibition of HDAC11 (unknown origin) assessed as remaining activity using (Boc-(Trifluoroacetyl) Lysine-AMC) fluorogenic peptide as substrate preincubated for 10 mins followed by substrate addition for 30 mins in presence of ATP by fluoroscence assay relative to control. The following applies: time 40.0 min.

For experiment [12], the system named is TMD8. As to the kind of experiment: In vivo antitumor activity against TMD8 cells xenografted in CB.17 SCID mouse assessed as inhibition of tumor growth at 50 mg/kg/day, po for 21 consecutive days measured every 3 days by Vernier caliper. Format: functional, organism-based. Particulars: Homo sapiens, time 21.0 day.
In experiment [13] the target is T1, Histone deacetylase 3. In words: Inhibition of HDAC3 in human TMD8 cells assessed as histone H3 acetylation after 24 hrs by Western blot analysis. Particulars: dose 2.5-10 µM, DDE = dose-dependent effect. Type of experiment: cell-based.
Experiment [14] has as its target Protein deacetylase HDAC6 (Homo sapiens) (UniProt Q9UBN7). In words: Inhibition of HDAC6 (unknown origin) assessed as remaining enzyme activity at 1 uM using RHKK(Ac)AMC fluorogenic peptide as substrate preincubated for 10 mins followed by substrate addition for 1 hr in presence of ATP by fluoroscence based assay relative to control. The following applies: time 70.0 min.

The target of experiment [15] is T3, Histone deacetylase 1. In words: Inhibition of HDAC1 in human TMD8 cells assessed as histone H3 acetylation after 24 hrs by Western blot analysis. Type of experiment: cell-based. The following applies: dose 2.5-10 µM, DDE = dose-dependent effect.
The test system of another experiment is DLBCL. As to the kind of experiment: Cytotoxicity against human DLBCL cells assessed as cell growth inhibition. Type of experiment: functional, cell-based.
Experiment [16] concerns TMD8. As to the kind of experiment: Induction of apoptosis in human TMD8 cells incubated for 24 hrs by propidium iodide based flow cytometric analysis. Type of experiment: functional, cell-based. The following applies: dose 0.25-1 µM, DDE = dose-dependent effect.
The test system of experiment [17] is TMD8. In words: Induction of apoptosis in human TMD8 cells assessed as increase in cleaved caspase-3 levels at 2.5 to 10 uM after 24 hrs by Western blot analysis. Type of experiment: functional, cell-based. The following applies: dose 2.5-10 µM.
Another experiment deals with Mus musculus. In words: Upregulation of acetylated-H3 levels in CB.17 SCID mouse xenografted with human TMD8 cells at 50 to 100 mg/kg/day, po measured after 21 days by Western blot analysis. Format: functional, organism-based. Particulars: dose 50-100 mg/kg/day, time 21.0 day. (In general: In xenograft studies the graft and the host belong to different species.)
Experiment [18] has as its target Histone deacetylase 5 (Homo sapiens) (UniProt Q9UQL6). In words: Inhibition of HDAC5 (unknown origin) assessed as remaining enzyme activity at 1 uM using Boc-(Trifluoroacetyl) Lysine-AMC fluorogenic peptide as substrate preincubated for 10 mins followed by substrate addition for 30 mins in presence of ATP by fluoroscence based assay relative to control. Particulars: time 40.0 min.

T1 sequence (O15379 whole entry): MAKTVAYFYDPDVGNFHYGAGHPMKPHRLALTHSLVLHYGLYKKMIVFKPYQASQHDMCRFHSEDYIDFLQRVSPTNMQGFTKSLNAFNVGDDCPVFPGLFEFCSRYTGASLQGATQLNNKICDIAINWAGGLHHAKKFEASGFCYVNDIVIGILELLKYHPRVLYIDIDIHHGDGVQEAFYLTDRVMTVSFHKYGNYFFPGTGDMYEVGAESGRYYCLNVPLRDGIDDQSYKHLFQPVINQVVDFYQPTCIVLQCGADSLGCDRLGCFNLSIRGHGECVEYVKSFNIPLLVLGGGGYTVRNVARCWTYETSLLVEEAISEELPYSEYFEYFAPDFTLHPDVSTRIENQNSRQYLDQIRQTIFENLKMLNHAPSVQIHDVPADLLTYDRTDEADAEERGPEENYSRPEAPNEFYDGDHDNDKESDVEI
T3 sequence (Q13547 whole entry): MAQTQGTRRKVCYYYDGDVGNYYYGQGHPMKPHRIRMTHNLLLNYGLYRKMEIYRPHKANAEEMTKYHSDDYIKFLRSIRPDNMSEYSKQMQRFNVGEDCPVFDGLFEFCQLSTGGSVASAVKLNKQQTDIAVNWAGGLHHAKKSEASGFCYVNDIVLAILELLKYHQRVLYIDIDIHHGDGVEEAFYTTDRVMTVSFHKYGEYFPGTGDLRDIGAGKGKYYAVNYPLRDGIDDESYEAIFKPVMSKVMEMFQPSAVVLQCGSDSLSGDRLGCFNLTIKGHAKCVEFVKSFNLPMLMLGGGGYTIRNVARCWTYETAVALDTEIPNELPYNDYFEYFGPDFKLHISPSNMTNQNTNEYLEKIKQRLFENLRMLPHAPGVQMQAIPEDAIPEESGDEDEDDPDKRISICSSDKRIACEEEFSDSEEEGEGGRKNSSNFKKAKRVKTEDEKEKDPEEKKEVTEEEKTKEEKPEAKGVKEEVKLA
T2 sequence (Q92769 whole entry): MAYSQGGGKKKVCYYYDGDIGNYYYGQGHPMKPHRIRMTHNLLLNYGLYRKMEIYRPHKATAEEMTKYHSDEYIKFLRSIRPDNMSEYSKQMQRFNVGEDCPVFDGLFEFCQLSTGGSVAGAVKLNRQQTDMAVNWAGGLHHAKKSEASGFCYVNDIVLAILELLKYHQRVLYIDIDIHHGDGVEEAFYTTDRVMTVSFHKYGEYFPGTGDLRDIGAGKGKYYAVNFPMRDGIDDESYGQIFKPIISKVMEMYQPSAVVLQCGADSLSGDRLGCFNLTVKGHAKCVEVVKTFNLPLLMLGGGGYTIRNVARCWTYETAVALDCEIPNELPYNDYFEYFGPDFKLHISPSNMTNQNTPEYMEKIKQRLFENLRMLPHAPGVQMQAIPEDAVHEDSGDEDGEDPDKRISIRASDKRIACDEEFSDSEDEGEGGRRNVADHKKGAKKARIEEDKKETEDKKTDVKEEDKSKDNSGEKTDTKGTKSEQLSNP
Sequence of Histone deacetylase 9 (Homo sapiens) (Q9UKV0 whole entry): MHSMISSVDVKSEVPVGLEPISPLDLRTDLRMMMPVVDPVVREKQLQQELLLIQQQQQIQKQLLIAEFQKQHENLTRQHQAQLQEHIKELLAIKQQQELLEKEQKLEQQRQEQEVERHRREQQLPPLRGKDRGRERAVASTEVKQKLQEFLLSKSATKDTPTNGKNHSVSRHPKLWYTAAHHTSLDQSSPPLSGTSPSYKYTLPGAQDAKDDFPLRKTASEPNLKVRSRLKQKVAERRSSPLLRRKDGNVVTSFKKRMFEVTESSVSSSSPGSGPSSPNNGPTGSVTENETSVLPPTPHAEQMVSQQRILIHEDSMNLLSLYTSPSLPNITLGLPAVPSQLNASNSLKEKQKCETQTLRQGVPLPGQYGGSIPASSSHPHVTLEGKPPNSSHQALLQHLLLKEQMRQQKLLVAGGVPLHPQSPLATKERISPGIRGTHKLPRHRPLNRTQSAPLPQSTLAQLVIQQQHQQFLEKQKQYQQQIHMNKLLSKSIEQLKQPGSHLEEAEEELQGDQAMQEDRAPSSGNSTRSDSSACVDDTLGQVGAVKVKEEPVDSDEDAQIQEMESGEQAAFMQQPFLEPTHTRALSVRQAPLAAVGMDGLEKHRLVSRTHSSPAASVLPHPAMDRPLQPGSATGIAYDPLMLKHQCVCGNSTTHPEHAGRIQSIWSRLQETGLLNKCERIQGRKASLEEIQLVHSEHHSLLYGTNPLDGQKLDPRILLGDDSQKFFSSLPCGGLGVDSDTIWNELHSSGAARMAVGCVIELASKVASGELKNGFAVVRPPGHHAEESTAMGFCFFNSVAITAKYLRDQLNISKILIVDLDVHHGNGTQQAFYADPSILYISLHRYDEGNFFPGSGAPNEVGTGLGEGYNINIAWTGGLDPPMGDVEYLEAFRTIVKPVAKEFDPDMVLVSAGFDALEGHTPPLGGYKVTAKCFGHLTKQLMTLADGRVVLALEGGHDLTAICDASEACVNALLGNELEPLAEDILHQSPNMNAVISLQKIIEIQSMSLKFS
Sequence of Histone deacetylase 5 (Homo sapiens) (Q9UQL6 whole entry): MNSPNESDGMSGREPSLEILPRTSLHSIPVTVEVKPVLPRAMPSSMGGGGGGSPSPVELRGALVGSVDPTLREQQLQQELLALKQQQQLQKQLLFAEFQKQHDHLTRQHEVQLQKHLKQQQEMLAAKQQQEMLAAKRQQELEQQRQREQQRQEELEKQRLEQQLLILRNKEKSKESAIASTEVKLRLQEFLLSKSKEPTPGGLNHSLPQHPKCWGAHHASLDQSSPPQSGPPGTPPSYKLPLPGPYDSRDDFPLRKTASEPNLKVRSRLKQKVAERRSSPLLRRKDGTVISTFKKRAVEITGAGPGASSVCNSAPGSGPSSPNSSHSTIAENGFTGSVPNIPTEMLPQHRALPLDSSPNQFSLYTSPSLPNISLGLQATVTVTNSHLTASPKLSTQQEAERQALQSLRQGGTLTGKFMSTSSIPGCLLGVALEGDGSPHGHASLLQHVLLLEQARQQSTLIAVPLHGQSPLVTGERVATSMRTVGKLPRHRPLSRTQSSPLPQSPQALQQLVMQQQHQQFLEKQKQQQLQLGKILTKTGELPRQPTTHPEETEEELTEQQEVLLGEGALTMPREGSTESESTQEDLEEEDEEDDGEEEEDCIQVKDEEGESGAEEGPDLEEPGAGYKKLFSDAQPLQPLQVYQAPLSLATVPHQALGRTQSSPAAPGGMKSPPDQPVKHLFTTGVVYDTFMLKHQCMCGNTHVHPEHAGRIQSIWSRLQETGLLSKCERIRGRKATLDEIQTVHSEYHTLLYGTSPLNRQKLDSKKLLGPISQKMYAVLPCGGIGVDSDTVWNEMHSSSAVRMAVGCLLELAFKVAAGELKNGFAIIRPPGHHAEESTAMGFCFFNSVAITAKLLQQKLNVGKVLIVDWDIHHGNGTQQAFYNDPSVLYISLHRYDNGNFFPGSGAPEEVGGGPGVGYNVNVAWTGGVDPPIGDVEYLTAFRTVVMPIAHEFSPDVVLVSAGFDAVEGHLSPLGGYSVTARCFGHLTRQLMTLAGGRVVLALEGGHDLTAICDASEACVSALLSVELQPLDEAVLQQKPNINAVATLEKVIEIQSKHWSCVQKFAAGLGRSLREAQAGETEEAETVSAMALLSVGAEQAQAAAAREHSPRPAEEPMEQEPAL
Sequence of Protein deacetylase HDAC6 (Homo sapiens) (Q9UBN7 whole entry): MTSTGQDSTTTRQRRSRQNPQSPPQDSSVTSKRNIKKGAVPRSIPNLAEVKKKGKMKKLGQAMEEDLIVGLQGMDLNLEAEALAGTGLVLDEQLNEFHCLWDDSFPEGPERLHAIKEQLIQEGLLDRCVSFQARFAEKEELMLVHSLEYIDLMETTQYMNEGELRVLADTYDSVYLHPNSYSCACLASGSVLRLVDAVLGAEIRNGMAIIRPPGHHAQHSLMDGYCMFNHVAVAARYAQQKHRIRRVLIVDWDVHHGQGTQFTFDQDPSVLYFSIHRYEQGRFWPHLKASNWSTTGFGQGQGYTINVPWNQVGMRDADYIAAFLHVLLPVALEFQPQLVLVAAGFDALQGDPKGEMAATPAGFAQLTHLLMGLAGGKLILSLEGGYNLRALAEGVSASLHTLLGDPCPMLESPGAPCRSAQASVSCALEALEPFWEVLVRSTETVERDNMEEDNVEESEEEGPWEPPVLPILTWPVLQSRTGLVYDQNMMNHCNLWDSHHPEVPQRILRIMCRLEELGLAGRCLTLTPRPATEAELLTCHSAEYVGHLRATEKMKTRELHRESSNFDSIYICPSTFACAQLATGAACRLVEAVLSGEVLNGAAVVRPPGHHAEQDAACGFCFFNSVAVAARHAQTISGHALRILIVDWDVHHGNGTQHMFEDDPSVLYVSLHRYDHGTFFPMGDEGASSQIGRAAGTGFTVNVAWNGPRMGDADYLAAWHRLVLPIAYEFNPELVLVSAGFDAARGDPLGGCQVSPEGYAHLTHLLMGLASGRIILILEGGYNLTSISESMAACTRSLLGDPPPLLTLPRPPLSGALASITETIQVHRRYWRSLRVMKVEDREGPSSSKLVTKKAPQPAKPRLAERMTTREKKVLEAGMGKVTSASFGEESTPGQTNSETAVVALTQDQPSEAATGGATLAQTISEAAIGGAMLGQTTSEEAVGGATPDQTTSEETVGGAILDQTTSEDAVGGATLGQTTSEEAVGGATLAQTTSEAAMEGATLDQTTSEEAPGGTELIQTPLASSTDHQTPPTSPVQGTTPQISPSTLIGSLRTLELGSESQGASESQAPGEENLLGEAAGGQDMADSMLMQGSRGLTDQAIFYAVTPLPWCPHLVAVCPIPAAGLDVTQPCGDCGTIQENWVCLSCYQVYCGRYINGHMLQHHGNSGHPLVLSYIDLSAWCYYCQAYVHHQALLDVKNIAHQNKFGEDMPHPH

For the molecule `Nc1ccccc1NC(=O)c1ccc(CN2CCC/C(=C\c3ccccn3)C2=O)cc1`, the inhibition entry on Histone deacetylase 3 [1], at Histone deacetylase 2 [4], at Histone deacetylase 2 [8], on Histone deacetylase 1 [10], at Histone deacetylase 3 [13] and at Histone deacetylase 1 [15] was “Dde” in each case. Besides, the Activity was 92.3% in experiment [2]; 81.2% in [5]; “Dde” in the experiment on TMD8 [6]; 88.1% in experiment [7]; 92% in experiment [11]; 96.9% in experiment [14]. The values for the Activity result (in the experiment with TMD8 [16]; in [18]) were “Dde” and 84.4%, respectively. In addition, the result in the experiment on TMD8 [3], in the experiment with TMD8 [9], in the experiment on TMD8 [12], in the experiment on DLBCL, in the experiment on TMD8 [17] and in the experiment on Mus musculus was Active.
